Data on 14 molecules can be found in PubChem BioAssay AID212 (DTP/NCI, 2004).

Structures are written as SMILES. “And” between values parts separate entries of the source, which are not always exact repeats. Identical values can stand only once. Inconclusive results are not listed.

This assay concerns BDF1 mice, colon carcinoma 38 sc, T/C %. Kind of assay: NCI In Vivo Anticancer Drug Screen. Data for tumor model Colon Carcinoma 38 (subcutaneous) in B6D2F1 (BDF1) mice. The procedure, abridged:
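T/C readout: treated group (T) measurement over vehicle control group (C) measurement. Endpoint is survival or tumor size in mice bearing a transplanted tumor.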

Setting [1] is: endpoint: median tumor weight (est.), dose: 12.5 mg/kg/injection, schedule: Q07DX002 (ip), vehicle: saline, higher = larger tumour.
The mark [2] stands for this setting: endpoint: median tumor weight (est.), dose: 25.0 mg/kg/injection, schedule: Q07DX002 (ip), vehicle: saline, higher = larger tumour.
[3] abbreviates: endpoint: median tumor weight (est.), dose: 6.25 mg/kg/injection, schedule: Q07DX002 (ip), vehicle: suspension in saline, higher = larger tumour.
Where [4] appears, read: endpoint: median tumor weight (est.), dose: 12.5 mg/kg/injection, schedule: Q07DX002 (ip), vehicle: suspension in saline, higher = larger tumour.
[5] abbreviates: endpoint: median tumor weight (est.), dose: 25.0 mg/kg/injection, schedule: Q07DX002 (ip), vehicle: suspension in saline, higher = larger tumour.
Setting [6] is: endpoint: median tumor weight (est.), dose: 50.0 mg/kg/injection, schedule: Q07DX002 (ip), vehicle: suspension in saline, higher = larger tumour.
The mark [7] stands for this setting: endpoint: median tumor weight (est.), dose: 25.0 mg/kg/injection, schedule: Q07DX002 (ip), vehicle: saline with Tween-80, higher = larger tumour.
Where [8] appears, read: endpoint: median tumor weight (est.), dose: 100.0 mg/kg/injection, schedule: Q07DX002 (ip), vehicle: saline with Tween-80, higher = larger tumour.
Where [9] appears, read: endpoint: median tumor weight (est.), dose: 25.0 mg/kg/injection, schedule: Q07DX003 (ip), vehicle: saline with Tween-80, higher = larger tumour.
[10] abbreviates: endpoint: median tumor weight (est.), dose: 50.0 mg/kg/injection, schedule: Q07DX003 (ip), vehicle: saline with Tween-80, higher = larger tumour.
The mark [11] stands for this setting: endpoint: median tumor weight (est.), dose: 100.0 mg/kg/injection, schedule: Q07DX003 (ip), vehicle: saline with Tween-80, higher = larger tumour.
Setting [12] is: endpoint: median tumor weight (est.), dose: 200.0 mg/kg/injection, schedule: Q07DX003 (ip), vehicle: saline with Tween-80, higher = larger tumour.
[13] abbreviates: endpoint: median tumor weight (est.), dose: 6.25 mg/kg/injection, schedule: Q07DX002 (ip), vehicle: saline, higher = larger tumour.
Where [14] appears, read: endpoint: median tumor weight (est.), dose: 50.0 mg/kg/injection, schedule: Q07DX002 (ip), vehicle: saline, higher = larger tumour.
Where [15] appears, read: endpoint: median tumor weight (est.), dose: 100.0 mg/kg/injection, schedule: Q07DX002 (ip), vehicle: saline, higher = larger tumour.

Take `O=c1cc[nH]c(=O)o1`: the T/C was 119 % of control (endpoint: median tumor weight (est.), dose: 12.2 mg/kg/injection, schedule: Q01DX009 (ip), vehicle: water, higher = larger tumour); 75 % of control (endpoint: median tumor weight (est.), dose: 18.5 mg/kg/injection, schedule: Q01DX009 (ip), vehicle: water, higher = larger tumour); 83 % of control (endpoint: median tumor weight (est.), dose: 28.0 mg/kg/injection, schedule: Q01DX009 (ip), vehicle: water, higher = larger tumour).
Consider `CC(=O)N(C)c1ccc(Nc2cc(C)[nH]c3ccc4ncnc4c23)cc1`, for which the T/C reads like this: under setting [1], 118 % of control and 104 % of control; under setting [2], 74 % of control and 80 % of control.
On to `O=CC(=O)c1ccc(O)cc1`, for which the T/C reads like this: under setting [3], 216 % of control; under setting [4], 114 % of control; under setting [5], 153 % of control; under setting [6], 153 % of control; (endpoint: median tumor weight (est.), dose: 200.0 mg/kg/injection, schedule: Q07DX002 (ip), vehicle: suspension in saline, higher = larger tumour) 118 % of control.
On to `Cn1c2nc(=O)n(-c3ccccc3)c(=O)c-2nc2c1CCCC2`, for which the T/C by setting is: under setting [7], 72 % of control; under setting [8], 70 % of control and 74 % of control; (endpoint: median tumor weight (est.), dose: 200.0 mg/kg/injection, schedule: Q07DX002 (ip), vehicle: saline with Tween-80, higher = larger tumour) 90 % of control.
`Cc1ccccc1SSc1ccccc1C`: the T/C runs as follows: (endpoint: median tumor weight (est.), dose: 25.0 mg/kg/injection, schedule: Q07DX003 (ip), vehicle: other, higher = larger tumour) 92 % of control; under setting [9], 96 % of control; (endpoint: median tumor weight (est.), dose: 50.0 mg/kg/injection, schedule: Q07DX003 (ip), vehicle: other, higher = larger tumour) 123 % of control; under setting [10], 88 % of control; (endpoint: median tumor weight (est.), dose: 100.0 mg/kg/injection, schedule: Q07DX003 (ip), vehicle: other, higher = larger tumour) 89 % of control; under setting [11], 62 % of control. For the same molecule, the T/C was 84 % of control (endpoint: median tumor weight (est.), dose: 200.0 mg/kg/injection, schedule: Q07DX003 (ip), vehicle: other, higher = larger tumour) and 74 % of control under setting [12].
For `c1cc(-c2cc3ccc(C4=NCCN4)cc3[nH]2)ccc1C1=NCCN1`, the T/C by setting is: under setting [13], 84 % of control; under setting [3], 90 % of control; under setting [1], 92 % of control; under setting [4], 87 % of control; under setting [2], 100 % of control; under setting [5], 105 % of control. In addition, the T/C was 84 % of control under setting [14] and 98 % of control under setting [6].
For the molecule `C[Si](C)(C)O/C=C1/CCOC1=O`, the T/C runs as follows: under setting [2], 84 % of control; under setting [14], 86 % of control; under setting [15], 84 % of control; (endpoint: median tumor weight (est.), dose: 200.0 mg/kg/injection, schedule: Q07DX002 (ip), vehicle: saline, higher = larger tumour) 95 % of control; (endpoint: median tumor weight (est.), dose: 400.0 mg/kg/injection, schedule: Q07DX002 (ip), vehicle: saline, higher = larger tumour) 105 % of control; (endpoint: median tumor weight (est.), dose: 800.0 mg/kg/injection, schedule: Q07DX002 (ip), vehicle: saline, higher = larger tumour) 78 % of control.
Turning to `COc1cccc2c1C(=O)c1c(O)c3c(c(O)c1C2=O)C[C@@](O)(C(C)=O)C[C@@H]3OC1CC(N(C)C)C(O)C(C)O1` (some centres undefined), the T/C (endpoint: median survival time, dose: 6.4 mg/kg/injection, schedule: Q07DX002 (iv), vehicle: saline, higher = longer survival) is 96 % of control; the T/C (endpoint: median survival time, dose: 10.0 mg/kg/injection, schedule: Q07DX002 (iv), vehicle: saline, higher = longer survival) was 105 % of control; the T/C (endpoint: median tumor weight (est.), dose: 2.25 mg/kg/injection, schedule: Q07DX002 (ip), vehicle: saline, higher = larger tumour) is 75 % of control and 89 % of control.
With `N#Cc1c(N)[nH]c2ccc(Sc3ccccc3)cc12`, the T/C (endpoint: median tumor weight (est.), dose: 12.5 mg/kg/injection, schedule: Q07DX002 (ip), vehicle: saline with Tween-80, higher = larger tumour) was 78 % of control; the T/C under setting [7] is 97 % of control; the T/C (endpoint: median tumor weight (est.), dose: 50.0 mg/kg/injection, schedule: Q07DX002 (ip), vehicle: saline with Tween-80, higher = larger tumour) is 63 % of control; the T/C under setting [8] was 73 % of control.
On to `CCCCCn1c(C)cc(/C=C\c2ccc3cc(C)ccc3[n+]2C)c1C`, for which the T/C runs as follows: (endpoint: median tumor weight (est.), dose: 0.62 mg/kg/injection, schedule: Q07DX002 (ip), vehicle: Klucel (hydroxypropylcellulose) (HPC), higher = larger tumour) 85 % of control and 86 % of control; (endpoint: median tumor weight (est.), dose: 1.25 mg/kg/injection, schedule: Q07DX002 (ip), vehicle: Klucel (hydroxypropylcellulose) (HPC), higher = larger tumour) 104 % of control; (endpoint: median tumor weight (est.), dose: 37.5 micrograms/kg/injection, schedule: Q07DX002 (ip), vehicle: Klucel (hydroxypropylcellulose) (HPC), higher = larger tumour) 84 % of control; (endpoint: median tumor weight (est.), dose: 75.0 micrograms/kg/injection, schedule: Q07DX002 (ip), vehicle: Klucel (hydroxypropylcellulose) (HPC), higher = larger tumour) 186 % of control; (endpoint: median tumor weight (est.), dose: 150.0 micrograms/kg/injection, schedule: Q07DX002 (ip), vehicle: Klucel (hydroxypropylcellulose) (HPC), higher = larger tumour) 162 % of control; (endpoint: median tumor weight (est.), dose: 600.0 micrograms/kg/injection, schedule: Q07DX002 (ip), vehicle: Klucel (hydroxypropylcellulose) (HPC), higher = larger tumour) 188 % of control.
Consider `O=C(CN1CCOCC1)Nc1nc(-c2ccc(Cl)cc2)cs1`, for which the T/C was 224 % of control (endpoint: median tumor weight (est.), dose: 50.0 mg/kg/injection, schedule: Q07DX002 (ip), vehicle: DMSO, higher = larger tumour); 292 % of control (endpoint: median tumor weight (est.), dose: 100.0 mg/kg/injection, schedule: Q07DX002 (ip), vehicle: DMSO, higher = larger tumour); 247 % of control (endpoint: median tumor weight (est.), dose: 200.0 mg/kg/injection, schedule: Q07DX002 (ip), vehicle: DMSO, higher = larger tumour); 234 % of control (endpoint: median tumor weight (est.), dose: 400.0 mg/kg/injection, schedule: Q07DX002 (ip), vehicle: DMSO, higher = larger tumour).
In the case of `CN(C)c1nc(N(C)C)nc(N(C)C)n1`, the T/C (endpoint: median tumor weight (est.), dose: 12.5 mg/kg/injection, schedule: Q07DX003 (ip), vehicle: saline with Tween-80, higher = larger tumour) was 68 % of control; the T/C under setting [9] is 91 % of control; the T/C under setting [10] is 112 % of control; the T/C under setting [11] was 66 % of control; the T/C under setting [12] is 65 % of control.
As to `c1ccc([C@H]2CN3CCSC3=N2)cc1`, the T/C (endpoint: median tumor weight (est.), dose: 10.0 mg/kg/injection, schedule: Q07DX003 (ip), vehicle: saline, higher = larger tumour) was 77 % of control and the T/C (endpoint: median tumor weight (est.), dose: 40.0 mg/kg/injection, schedule: Q07DX003 (ip), vehicle: saline, higher = larger tumour) was 45 % of control.
In the case of `Cc1c(N)nc(C(CC(N)=O)NCC(N)C(N)=O)nc1C(=O)NC(C(=O)NC(C)C(O)C(C)C(=O)NC(C(=O)NCCc1nc(-c2nc(C(=O)NCCCNCCCc3ccccn3)cs2)cs1)C(C)O)C(OC1OC(CO)C(O)C(O)C1OC1OC(CO)C(O)C(OC(N)=O)C1O)c1cnc[nH]1` (centres undefined), the T/C reads like this: (endpoint: median tumor weight (est.), dose: 0.1 mg/kg/injection, schedule: Q07DX003 (ip), vehicle: saline, higher = larger tumour) 96 % of control; (endpoint: median tumor weight (est.), dose: 0.2 mg/kg/injection, schedule: Q07DX003 (ip), vehicle: saline, higher = larger tumour) 67 % of control; (endpoint: median tumor weight (est.), dose: 0.4 mg/kg/injection, schedule: Q07DX002 (ip), vehicle: water, higher = larger tumour) 81 % of control; (endpoint: median tumor weight (est.), dose: 0.4 mg/kg/injection, schedule: Q07DX003 (ip), vehicle: saline, higher = larger tumour) 72 % of control; (endpoint: median tumor weight (est.), dose: 0.8 mg/kg/injection, schedule: Q07DX002 (ip), vehicle: water, higher = larger tumour) 66 % of control; (endpoint: median tumor weight (est.), dose: 0.8 mg/kg/injection, schedule: Q07DX003 (ip), vehicle: saline, higher = larger tumour) 105 % of control. In addition, the T/C reads like this: (endpoint: median tumor weight (est.), dose: 1.6 mg/kg/injection, schedule: Q07DX002 (ip), vehicle: water, higher = larger tumour) 75 % of control; (endpoint: median tumor weight (est.), dose: 1.6 mg/kg/injection, schedule: Q07DX003 (ip), vehicle: saline, higher = larger tumour) 71 % of control; (endpoint: median tumor weight (est.), dose: 3.2 mg/kg/injection, schedule: Q07DX002 (ip), vehicle: water, higher = larger tumour) 72 % of control; (endpoint: median tumor weight (est.), dose: 3.2 mg/kg/injection, schedule: Q07DX003 (ip), vehicle: saline, higher = larger tumour) 60 % of control; under setting [13], 70 % of control; (endpoint: median tumor weight (est.), dose: 6.4 mg/kg/injection, schedule: Q07DX002 (ip), vehicle: water, higher = larger tumour) 41 % of control. Also, the T/C by setting is: (endpoint: median tumor weight (est.), dose: 12.8 mg/kg/injection, schedule: Q07DX002 (ip), vehicle: water, higher = larger tumour) 45 % of control; under setting [2], 32 % of control and 33 % of control; under setting [15], 29 % of control.
